# What was measured:
# [1] = test system: Chinese adults with overweight or obesity; test: Immunogenicity: anti-drug antibodies and neutralizing antibodies, phase 1b trial; format: in vivo, human; details: for Participants who developed treatment-induced anti-mazdutide antibodies: n = 8
# Procedure: (§1) Secondary outcomes included pharmacokinetics, assessed by maximum observed plasma concentration (Cmax), time at which Cmax was observed (Tmax), terminal elimination half-life (t½), and area under the curve from time zero to 168 h after the first dose (AUC0–168 h) and immunogenicity, assessed by titters of anti-drug antibodies (ADAs) and neutralizing antibodies. Secondary efficacy outcomes included the change from baseline to week 12 (9 mg cohort) or week 16 (10 mg cohort) in body weight, waist circumference, BMI, as well as the change from baseline in HbA1c, lipids, transaminase and serum uric acid levels.
# [2] = test system: Chinese adults with overweight or obesity; test: HbA1c and metabolic parameters, phase 1b trial; format: in vivo, human
# Procedure: as §1
# Summaries for other efficacy and safety variables included descriptive statistics for continuous measures (mean and standard deviation or standard error) and for categorical measures (sample size, frequency and percentages).
# [3] = Solubility of the study drug; format: physicochemical; details: study protocol
# Procedure: (§2) 5.2.1 Physical and chemical characteristi cs of the study drug
# (§3) Molecular Weight: 4560.32 Daltons
# (§4) Description: White to off-white powder
# (§5) Solubility: Solvent: 20 mM Tris buffer at pH 8.0 and 150 mM sodium chloride.
# (§6) Solubility: Not less than 10 mg/mL at 25 ℃.
# (§7) 5.2.2 Study Drug Strength and Manufacturer
# (§8) The IB I362 dru g produ ct is IBI362 for injection an d consists of 2 mg IB I362 and the […]
# (§9) contents are reconstituted with sterile water for injection to obtain a clear solution of […]
# (§10) ingredients tris (hydroxymethyl) aminomethane, mannitol, and sucrose." The vial contents are reconstituted with sterile water for injection to obtain a clear solution devoid […]
# (§11) The dru g product stren gt h used in this stud y was 2 mg/vial, and the placebo strengt h matched the drug product and was provided b y the Sponsor.
# (§12) The drug product and placebo should be stored under refrigerated conditions (2 ℃ […]
# (§13) 5.2.4 Mode of administration
# (§14) Both IBI362 and placebo will be administered by subcutaneous injection once a week. Each dose should be prepared and injected by the stud y nurse. See the Instructions for Use fo rdetails of the preparation and use of the study drug.
# (§15) 5.3.1 Prohibited Medications
# (§16) The following m edicatio ns and measur es ar e cont raindicated:
# (§17) 1. Growth hormone and its analogues;
# (§18) 2. Any systemic corticosteroid (including intravenous, oral, intra-articular) administered for ≥ 7 da ys. […]
# [4] = Isoelectric point (PI) of the study drug; format: physicochemical; details: study protocol
# Procedure: as §2, §3, §4, §5, §6, §7, §8, §9, §10, §11, §12, §13, §14, §15, §16, §17, §18
# [5] = test system: Chinese adults with overweight or obesity; details: in vivo
# Procedure: (§20) The study included a 3-week screening period, a 12-week or 16-week treatment period and an 8-week safety follow-up period. During the treatment period, mazdutide or placebo was subcutaneously administered once weekly with one of the following dose-escalation regimens: 9 mg cohort (3 mg weeks 1-4; 6 mg weeks 5-8; 9 mg weeks 9-12) and 10 mg cohort (2.5 mg weeks 1-4; 5 mg weeks 5-8; 7.5 mg weeks 9-12; 10 mg weeks 13-16) (Figure S1). The escalation regimen in the 10 mg cohort provided relatively slower titration (2.5 mg every 4 weeks) to the target dose of 10 mg, and the escalation regimen in the 9 mg cohort adopted faster titration (3 mg every 4 week). Participants were required to maintain the original diet, exercise and lifestyle during the trial.
# (§21) The primary outcomes were safety and tolerability of mazdutide. […] The severity of the TEAEs (mild, moderate or severe) and the association between an event and the study drug was assessed by investigators based on pre-specified criteria.
# (§22) Safety analyses were done in the safety population (defined as all participants who received at least one dose of the study treatment).
# [6] = test system: Chinese adults with overweight or obesity; details: low dose cohorts; cited from earlier work
# Procedure: Summary Background Mazdutide (also known as IBI362 or LY3305677), a novel once-weekly glucagon-like peptide-1 (GLP-1) and glucagon receptor dual agonist, achieved 12-week body weight loss up to 6.4% at doses up to 6 mg in Chinese adults with overweight or obesity. We further explored the safety and efficacy of mazdutide dosed up to 9 mg and 10 mg. Methods In this randomised, placebo-controlled, multiple-ascending-dose phase 1b trial, we enrolled adults (aged 18-75 years, both inclusive) with overweight (body-mass index [BMI] ≥24 kg/m^2) accompanied by hyperphagia and/or at least one obesity-re ... || A PubMed search on July 4, 2022, with the terms “glucagon-like peptide-1″, [AND] “glucagon receptor”, [AND] “dual agonist”, in the Title or Abstract yielded 31 results. […] Mazdutide dosed up to 6 mg achieved 12-week mean body weight loss up to 6.4% in Chinese adults with overweight or obesity. || Mazdutide (also known as IBI362 or LY3305677) is a once-weekly mammalian oxyntomodulin analogue. […] In a phase 1b clinical trial in Chinese adults with overweight or obesity, mazdutide dosed up to 6 mg achieved 12-week mean body weight loss up to 6.4%.[11] Given the favourable safety profile and the robust body weight loss achieved in the low-dose cohort ... || (+ 2 further places)
# [7] = test system: Japanese and US subjects; details: single-dose (0.03, 0.1, 0.3, 1.0, 2.5, 5.0 mg) escalation, ref earlier single-dose studies quoted in protocol; cited from earlier work
# [8] = test system: human GLP-1 receptors; details: in vitro; cited from earlier work
# Procedure: (§19) Mazdutide (also known as IBI362 or LY3305677) is a once-weekly mammalian oxyntomodulin analogue. […] In a phase 1b clinical trial in Chinese adults with overweight or obesity, mazdutide dosed up to 6 mg achieved 12-week mean body weight loss up to 6.4%.[11] Given the favourable safety profile and the robust body weight loss achieved in the low-dose cohort ...
# [9] = test system: human glucagon receptors; details: in vitro; cited from earlier work
# Procedure: as §19
# [10] = test system: mice; details: cited from earlier work
# Procedure: as §19
# [11] = test system: mouse GLP-1 receptors; details: in vitro; cited from earlier work
# Procedure: as §19
# [12] = test system: mouse glucagon receptors; details: in vitro; cited from earlier work
# Procedure: as §19
# [13] = test system: Chinese adults with overweight or obesity; test: Treatment-emergent adverse events, phase 1b trial, 9 mg and 10 mg cohorts; details: n = 8
# Procedure: as §20, §21, §22
# [14] = 9 mg cohort, week 12, participants without type 2 diabetes
# [15] = 9 mg cohort (sc QW 3/6/9 mg, 4 wk each)
# [16] = 10 mg cohort (sc QW 2.5/5/7.5/10 mg, 4 wk each)
smiles,measurement,setting,value
CC(C)C[C@H](NC(=O)[C@H](CC(C)C)NC(=O)[C@H](Cc1c[nH]c2ccccc12)NC(=O)[C@H](CCC(=O)O)NC(=O)[C@@H](NC(=O)[C@H](Cc1ccccc1)NC(=O)[C@H](CCC(=O)O)NC(=O)[C@H](CCCCNC(=O)COCCOCCNC(=O)COCCOCCNC(=O)CC[C@H](NC(=O)CCCCCCCCCCCCCCCCCCC(=O)O)C(=O)O)NC(=O)[C@H](C)NC(=O)[C@H](CCCCN)NC(=O)[C@H](CCCCN)NC(=O)[C@H](CCC(=O)O)NC(=O)[C@H](CC(=O)O)NC(=O)[C@H](CC(C)C)NC(=O)[C@H](Cc1ccc(O)cc1)NC(=O)[C@H](CCCCN)NC(=O)[C@H](CO)NC(=O)[C@H](Cc1ccc(O)cc1)NC(=O)[C@H](CC(=O)O)NC(=O)[C@H](CO)NC(=O)[C@@H](NC(=O)[C@H](Cc1ccccc1)NC(=O)[C@@H](NC(=O)CNC(=O)[C@H](CCC(N)=O)NC(=O)C(C)(C)NC(=O)[C@@H](N)Cc1c[nH]cn1)[C@@H](C)O)[C@@H](C)O)C(C)C)C(=O)N[C@@H](CCC(=O)O)C(=O)NCC(=O)NCC(=O)N1CCC[C@H]1C(=O)N[C@@H](CO)C(=O)N[C@@H](CO)C(=O)NCC(N)=O [Mazdutide],Participants who developed treatment-induced anti-mazdutide antibodies,[1]; 9 mg cohort,Two
same,Participants who developed treatment-induced anti-mazdutide antibodies,[1]; 10 mg cohort,four
same,Participants who developed neutralizing antibodies,"[1]; 10 mg cohort, attenuated cAMP generation in CHO cells over-expressing human recombinant glucagon receptors",One
same,Participants with a 0.4% HbA1c reduction from baseline,[2]; [14],three
same,Participants with a 0.8% HbA1c reduction from baseline,[2]; [14],two
same,Participants with a 0.4% HbA1c reduction from baseline,"[2]; 10 mg cohort, week 16, participants without type 2 diabetes",two
same,"Metabolic parameters including triglycerides, low density lipoprotein cholesterol, total cholesterol and serum uric acid","[2]; both dose regimens, compared with placebo",Greater improvements
same,Non-diabetic participants with slight elevation in end-of-treatment HbA1c levels,[2]; high-dose cohorts,two
same,Solubility,"[3]; 20 mM Tris buffer at pH 8.0 and 150 mM sodium chloride, 25 ℃",Not less than 10 mg/mL
same,Solubility Description,[3],Sparingly or slightly soluble
same,PI,[4],5.2
same,Participants with treatment-emergent adverse events,[5],100%
same,Severity of treatment-emergent adverse events,[5],all mild or moderate in severity
same,Incidence of abdominal distension,[6],12.5%
same,Incidence of diarrhoea,[6],37.5%
same,Incidence of nausea,[6],up to 37.5%
same,Incidence of vomiting,[6],12.5%
same,maximum tolerated dose (MTD) of single-dose study,[7],2.5 mg
same,Binding to human GLP-1 receptors,[8],potently bound
same,Binding to human glucagon receptors,[9],potently bound
same,Body weight,[10]; both Gcgr knockout (KO) and Glp1r KO settings,decreased body weight
same,Energy expenditure,[10],increased energy expenditure
same,Glucose control,[10],improved glucose control
same,Binding to mouse GLP-1 receptors,[11],potently bound
same,Binding to mouse glucagon receptors,[12],potently bound
same,TEAE: Infections and infestations (system organ class),[13]; [15],6 (75.0) n (%)
same,TEAE: Upper respiratory tract infection,[13]; [15],3 (37.5) n (%)
same,TEAE: Urinary tract infection,[13]; [15],4 (50) n (%)
same,TEAE: Infections and infestations (system organ class),[13]; [16],5 (62.5) n (%)
same,TEAE: Upper respiratory tract infection,[13]; [16],4 (50) n (%)
same,TEAE: Urinary tract infection,[13]; [16],2 (25) n (%)

# — article PMC9561728, “Safety and efficacy of a GLP-1 and glucagon receptor dual agonist mazdutide (IBI362) 9 mg and 10 mg in Chinese adults with overweight or obesity: A randomised, placebo-controlled, multiple-ascending-dose phase 1b trial” (eClinicalMedicine, 2022)
